What all share (format): cell-based
Data set [1] is described as follows: Cellular toxicity assay in human PBM cells. The conditions noted are these: human, human PBM cells, read-out: Cytotoxicity. The procedure, abridged:
(§1)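 Compound toxicity was tested in cultured cells, with cycloheximide as positive cytotoxic control and solvent-exposed untreated cells as negative control. Cytotoxicity IC50 came from the concentration-response curve by the median effective method.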

Data set [2] can be described thus: Cellular toxicity assay in CEM cells. The conditions noted are these: human, CEM lymphoblastoid cells, read-out: Cytotoxicity. The gist of the method:
as §1

A short description of data set [3]: Cellular toxicity assay in Vero cells. The following applies: African green monkey, read-out: Cytotoxicity. The gist of the method:
as §1

The subject of data set [4] is mitochondrial DNA (COXII gene) in HepG2 cells. Description: Mitochondrial toxicity assay in HepG2 cells: mitochondrial DNA. From the text:
(§2) A real-time PCR assay to accurately quantify mitochondrial DNA content has been developed (see Stuyver L J, Lostia S, Adams M, Mathew J S, Pai B S, Grier J, Tharnish P M, Choi Y, Chong Y, Choo H, Chu C K, Otto M J, Schinazi R F. Antiviral activities and cellular toxicities of modified 2′,3′-dideoxy-2′,3′-didehydrocytidine analogs. Antimicrob. Agents Chemother. 2002; 46: 3854-60). This assay was used in all studies described in this application that determine the effect of compounds on mitochondrial DNA content. In this assay, low-passage-number HepG2 cells were seeded at 5,000 cells/well in collagen-coated 96-well plates. Test compounds were added to the medium to obtain final concentrations of 0 μM, 0.1 μM, 10 μM and 100 μM. On culture day 7, cellular nucleic acids were prepared by using commercially available columns (RNeasy 96 kit; Qiagen). […] The mitochondrial cytochrome c oxidase subunit II (COXII) gene and the β-actin or rRNA gene were amplified from 5 μl of the eluted nucleic acids using a multiplex Q-PCR protocol with suitable primers and probes for both target and reference amplifications. For COXII the following sense, probe and antisense primers were used, respectively: 5′-TGCCCGCCATCATCCTA-3′, 5′-tetrachloro-6-carboxyfluorescein-[…]-TAMRA-3′ and 5′-[…]-3′. For exon 3 of the β-actin gene (GenBank accession number E01094) the sense, probe, and antisense primers are 5′-GCGCGGCTACAGCTTCA-3′, 5′-6-[…]-3′ and 5′-[…]-3′, respectively. The primers and probes for the rRNA gene are commercially available from Applied Biosystems. Since equal amplification efficiencies are obtained for all genes, the comparative CT method was used to investigate potential inhibition of mitochondrial DNA synthesis. The comparative CT method uses arithmetic formulas in which the amount of target (COXII gene) is normalized to the amount of an endogenous reference (the β-actin or rRNA gene) and is relative to a calibrator (a control with no drug at day 7). The arithmetic formula for this approach is given by 2−ΔΔCT, where ΔΔCT is (CT for average target test sample CT for target control)−(CT for average reference test−CT for reference control) (see Johnson M R, K Wang, J B Smith, M J Heslin, R B Diasio. Quantitation of dihydropyrimidine dehydrogenase expression by real-time reverse transcription polymerase chain reaction. Anal. Biochem. 2000; 278:175-184). A decrease in mitochondrial DNA content in cells grown in the presence of drug indicated mitochondrial toxicity.
(§3) The effect of compounds 7 and 9 on the levels of mitochondrial and nuclear DNA, and lactic acid production was evaluated in HepG2 cells (14-day assay), and the data is tabulated below in Table 2: […]

In data set [5] the test system is nuclear DNA in HepG2 cells. Description: Mitochondrial toxicity assay in HepG2 cells: nuclear DNA. The conditions noted are these: Homo sapiens.
From the text: as §2, §3

Data set [6] deals with HBV e antigen (HBeAg). Description: HBeAg ELISA in HepAD38 cells (cccDNA-dependent marker). The conditions noted are these: Hepatitis B virus, HePAD38, 336 h. The procedure:
Production of secreted HBeAg is predominantly cccDNA-dependent in HepAD38 cells and therefore can serve as a surrogate marker for cccDNA (Ladner, S. K., Otto, M. J., Barker, C. S., Zaifert, K., Wang, G. H., Guo, J. T., Seeger, C., King, R. W. Antimicrob Agents Chemother 1997, 41, 1715-1720; Zhou T, Guo H, Guo J T, Cuconati A, Mehta A, Block T M. Antiviral Res. 2006; 72 (2): 116-24.). The effect on the levels of cccDNA formation was assessed using a cell-based assay that measures HBV e antigen (HBeAg) as a cccDNA-dependent marker in the HepAD38 system. HepAD38 cells were seeded at 50,000 cells/well in collagen-coated 96-well plates with DMEM/F12 medium (Life Technologies) supplemented with 10% heat-inactivated fetal bovine serum. Cells were treated with 0.3 μg/ml tetracycline as needed. Test compounds and controls were added to cells to a final concentration of 10 μM or in a dose response manner ranging from 0.001 to 10 μM. Medium and test compounds were replenished every 5 days in culture. Supernatants were harvested at day-14, clarified by centrifugation at 5000 rpm for 5 min, and stored at −70° C. until use. ELISA—Culture medium was diluted 1:15 in DMEM/F12 and the levels of HBeAg secreted in the culture medium were measured by using HBeAg ELISA kit (BioChain Institute Inc. Hayward, Calif.) according to the manufacturer's protocol. The concentration of compound that reduced levels of secreted HBeAg by 50% (EC50) was determined by linear regression.
A general note: ELISA stands for enzyme-linked immunosorbent assay.

Data set [7] concerns mitochondrial DNA (COXII gene) in HepG2 cells. Description: Mitochondrial toxicity assay in HepG2 cells: mitochondrial DNA. The conditions noted are these: for MtDNA (% of control): human, 14 day.
Setting [8] is: Homo sapiens, HepG2, 336 h, read-out: % inhibition MtDNA.

Structures are written as SMILES.

`C#CCNC(=O)C(=O)c1c(C)c(C(=O)Nc2ccc(F)c(F)c2)n(C)c1C` [Compound 7a, 4-[(Propargylamino)(oxo)acetyl]-N-(3,4-difluorophenyl)-1,3,5-trimethyl-1H-pyrrole-2-carboxamide]: the CC50 in data set [1] was above 100 µM; in data set [2] it was above 100 µM; in data set [3], above 90 µM. The inhibition at 10 µM in data set [4] (setting [8]) was below 1%; in data set [5] (336 h, HepG2 cells, 14-day assay, 10 μM, read-out: % inhibition nDNA), 5.4%. In addition, the half-maximal inhibitory concentration (IC50) in data set [4] (Homo sapiens, HepG2, 336 h, read-out: IC50 MtDNA) is above 50 µM; in data set [5] (336 h, HepG2 cells, 14-day assay), above 50 µM. Further, the “MtDNA (% of control)” value in data set [4] (human, 14 day, 10 μM) is given as 110 (100-121) % of control; in data set [7] (25 μM) it was 91.8 (80.2-105) % of control; in data set [7] (50 μM), 94.6 (73.8-121) % of control. For the same molecule, the inhibition at 25 µM in data set [5] (336 h, HepG2 cells, 14-day assay, 25 μM, read-out: % inhibition nDNA) was below 1%; in data set [7] (setting [8]), below 1%. The inhibition at 50 µM was 13.1% in data set [5] (HepG2, 336 h, read-out: % inhibition nDNA) and 17.7% in data set [7] (setting [8]). Also, the EC50 in data set [6] (read-out: Anti-HBeAg activity EC50) stood at 0.008 µM. In addition, the 90% effect concentration (EC90) in data set [6] (read-out: Anti-HBeAg activity EC90) stood at 0.58 µM.

For orientation: inhibition means the share of the control response that was lost under treatment. As a reminder, the IC50 is the midpoint of a concentration-inhibition curve. The EC50 is the concentration at which the effect is half-maximal. In general, EC90 refers to the point of the concentration-response curve where the effect stands at 90%.

(Values after patent US10752584B2 (EMORY UNIVERSITY, priority 2016, dated 2020).)
